Results as given in article PMC10850145, “Hormonal steroids induce multidrug resistance and stress response genes in Neisseria gonorrhoeae by binding to MtrR” (Nature Communications, 2024).
Values joined by “and” are separate entries in the source; they are usually repeats but may differ in a detail not shown here. Equal values may be shown once. Read-outs that look alike come from different tables or passages of the source.

Tests used:
MtrR R176E = biological target: T1, MtrR R176E (Neisseria gonorrhoeae, UniProt P39897, R176E); experiment: biochemical; assay type: binding
T1 construct: Hexa-histidine tag with TEV protease cleavage site (N, cleaved yes); made in house; host or cells: E. coli Rosetta Gami B(DE3) pLysS
T1 sequence (P39897 whole entry R176E): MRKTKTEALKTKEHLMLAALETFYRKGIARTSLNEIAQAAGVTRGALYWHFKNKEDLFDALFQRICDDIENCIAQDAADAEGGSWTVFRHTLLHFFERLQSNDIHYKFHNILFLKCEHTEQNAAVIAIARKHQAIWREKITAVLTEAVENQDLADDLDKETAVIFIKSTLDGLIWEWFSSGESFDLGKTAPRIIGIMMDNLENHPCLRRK

MtrR D171A = biological target: T2, MtrR D171A (Neisseria gonorrhoeae, UniProt P39897, D171A); experiment: biochemical; assay type: binding
T2 construct: Hexa-histidine tag with TEV protease cleavage site (N, cleaved yes); made in house; host or cells: E. coli Rosetta Gami B(DE3) pLysS
T2 sequence (P39897 whole entry D171A): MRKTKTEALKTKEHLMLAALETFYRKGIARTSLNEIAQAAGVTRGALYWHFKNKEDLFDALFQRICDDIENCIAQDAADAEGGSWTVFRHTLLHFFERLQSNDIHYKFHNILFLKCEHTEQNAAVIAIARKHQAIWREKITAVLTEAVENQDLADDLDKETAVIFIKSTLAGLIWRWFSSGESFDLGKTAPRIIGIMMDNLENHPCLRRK

N. gonorrhoeae = tested on: N. gonorrhoeae; parameters: method as in PMID 816438; conditions: cited from earlier work
FA19 mtrD::kan (KH14) = experiment: MIC of steroidal hormones on GC agar, FA19 mtrD::kan (KH14); assay type: cell-based, Neisseria gonorrhoeae
Protocol: To determine the minimal inhibitory concentrations (MICs) by the steroidal hormones and their effect on antimicrobial susceptibility, 5 x 10^5 CFU and 1:5 serial dilutions of gonococcal strains were spotted on GC agar plates containing different concentrations of antibiotics and/or hormones as indicated. Antimicrobial susceptibility was assessed after 24 h incubation.
Table S1. Steroidal hormones are substrates of the MtrCDE efflux pump
Progesterone Testosterone
*Minimal inhibition concentration is defined by the lowest concentration at which visible growth is […]

rpoH-lacZ expression = assay type: cell-based, Neisseria gonorrhoeae; conditions: for Miller units, single well: individual replicate; for Miller units: plate rows 5-8 (rpoH), single well; for Plate-6 (Testosterone) Miller units, Mean / Plate-6 (Testosterone) Miller units: right (rpoH) half of sheet
[1] = 6.25 µM hormone, plate columns 1-6 (WT)
[2] = 12.5 µM hormone, plate columns 1-6 (WT)
[3] = 25 µM hormone, plate columns 1-6 (WT)
[4] = 50 µM hormone, plate columns 1-6 (WT)

For `C[C@]12CC[C@H]3[C@@H](CCC4=CC(=O)CC[C@@]43C)[C@@H]1CC[C@@H]2O` [Testosterone, testosterone], which Kd (MtrR R176E) is on record?
The Kd was 3.73 ± 0.4 µM.

What about the Kd (MtrR D171A) of the same molecule?
Its Kd is 30.9 ± 24.2 µM.

And the “growth inhibition of N. gonorrhoeae” value (N. gonorrhoeae)?
Its value is “arrest N. gonorrhoeae growth”.

And the MIC (FA19 mtrD::kan (KH14); Neisseria gonorrhoeae)?
Its MIC is 40 µg/mL and 139 µM.

What about the “effect of mtrD deletion on MIC” value (FA19 mtrD::kan (KH14); vs FA19) of the same molecule?
The value was “lowered”.

What about the “Miller units, single well” value (rpoH-lacZ expression; [1]) of the same molecule?
The value was 114 Miller units and 127 Miller units and 153 Miller units.

What about the “Miller units, Mean” value (rpoH-lacZ expression; 6.25 µM hormone, plate columns 1-6 (WT), mean of 4 wells) of the same molecule?
The value was 125 Miller units.

And the “Miller units, Mean” value (rpoH-lacZ expression; 6.25 µM hormone, plate columns 1-6 (WT), mean of plate rows 5-8 (rpoH))?
The value was 125 Miller units.

What about the Miller units (rpoH-lacZ expression; [1]) of the same molecule?
The Miller units was 114 Miller units and 127 Miller units and 153 Miller units and 108 Miller units.

And the Miller units (rpoH-lacZ expression; 6.25 µM hormone, plate columns 7-12 (second strain not given))?
The Miller units was 161 Miller units and 167 Miller units and 191 Miller units and 162 Miller units.

And the “Miller units, Mean” value (rpoH-lacZ expression; 6.25 µM hormone, plate columns 7-12 (second strain), mean of plate rows 5-8 (rpoH))?
Its value is 170 Miller units.

What about the “Miller units, single well” value (rpoH-lacZ expression; 6.25 µM hormone, plate columns 7-12 (second strain, not WT)) of the same molecule?
Its value is 161 Miller units and 167 Miller units and 191 Miller units.

And the “Miller units, Mean” value (rpoH-lacZ expression; 6.25 µM hormone, plate columns 7-12 (second strain, not WT), mean of 4 wells)?
Its value is 170 Miller units.

What about the “Plate-6 (Testosterone) Miller units, Mean” value (rpoH-lacZ expression; 6.25 µM, plate column 3, mean of plate rows 5-8) of the same molecule?
The value was 43 Miller units.

What about the “Plate-6 (Testosterone) Miller units” value (rpoH-lacZ expression; 6.25 µM, plate column 3, plate rows 5-8, single wells) of the same molecule?
The value was 39 Miller units and 46 Miller units and 47 Miller units.

What about the “Plate-6 (Testosterone) Miller units, Mean” value (rpoH-lacZ expression; 6.25 µM, plate column 9, mean of plate rows 5-8) of the same molecule?
The value was 64 Miller units.

And the “Plate-6 (Testosterone) Miller units” value (rpoH-lacZ expression; 6.25 µM, single wells)?
Its value is 55 Miller units and 57 Miller units and 65 Miller units and 80 Miller units.

And the “Miller units, single well” value (rpoH-lacZ expression; [2])?
The value was 120 Miller units and 124 Miller units and 149 Miller units.

What about the “Miller units, Mean” value (rpoH-lacZ expression; 12.5 µM hormone, plate columns 1-6 (WT), mean of 4 wells) of the same molecule?
The value was 130 Miller units.

What about the “Miller units, Mean” value (rpoH-lacZ expression; 12.5 µM hormone, plate columns 1-6 (WT), mean of plate rows 5-8 (rpoH)) of the same molecule?
Its value is 130 Miller units.

What about the Miller units (rpoH-lacZ expression; [2]) of the same molecule?
The Miller units was 120 Miller units and 124 Miller units and 149 Miller units and 125 Miller units.

What about the Miller units (rpoH-lacZ expression; 12.5 µM hormone, plate columns 7-12 (second strain not given)) of the same molecule?
The Miller units was 161 Miller units and 177 Miller units and 186 Miller units and 176 Miller units.

What about the “Miller units, Mean” value (rpoH-lacZ expression; 12.5 µM hormone, plate columns 7-12 (second strain), mean of plate rows 5-8 (rpoH)) of the same molecule?
The value was 175 Miller units.

What about the “Miller units, single well” value (rpoH-lacZ expression; 12.5 µM hormone, plate columns 7-12 (second strain, not WT)) of the same molecule?
Its value is 161 Miller units and 177 Miller units and 186 Miller units.

And the “Miller units, Mean” value (rpoH-lacZ expression; 12.5 µM hormone, plate columns 7-12 (second strain, not WT), mean of 4 wells)?
Its value is 175 Miller units.

And the “Plate-6 (Testosterone) Miller units, Mean” value (rpoH-lacZ expression; 12.5 µM, plate column 4, mean of plate rows 5-8)?
The value was 52 Miller units.

What about the “Plate-6 (Testosterone) Miller units” value (rpoH-lacZ expression; 12.5 µM, plate column 4, plate rows 5-8, single wells) of the same molecule?
Its value is 51 Miller units and 50 Miller units and 56 Miller units and 52 Miller units.

What about the “Plate-6 (Testosterone) Miller units, Mean” value (rpoH-lacZ expression; 12.5 µM, plate column 10, mean of plate rows 5-8) of the same molecule?
The value was 62 Miller units.

And the “Plate-6 (Testosterone) Miller units” value (rpoH-lacZ expression; 12.5 µM, plate column 10, plate rows 5-8, single wells)?
The value was 58 Miller units and 54 Miller units and 63 Miller units and 74 Miller units.

And the “Miller units, single well” value (rpoH-lacZ expression; [3])?
Its value is 127 Miller units and 137 Miller units.

What about the “Miller units, Mean” value (rpoH-lacZ expression; 25 µM hormone, plate columns 1-6 (WT), mean of 4 wells) of the same molecule?
The value was 133 Miller units.

And the “Miller units, Mean” value (rpoH-lacZ expression; 25 µM hormone, plate columns 1-6 (WT), mean of plate rows 5-8 (rpoH))?
Its value is 133 Miller units.

What about the Miller units (rpoH-lacZ expression; [3]) of the same molecule?
Its Miller units is 127 Miller units and 137 Miller units and 133 Miller units.

And the Miller units (rpoH-lacZ expression; 25 µM hormone, plate columns 7-12 (second strain not given))?
The Miller units was 168 Miller units and 179 Miller units and 147 Miller units and 185 Miller units.

What about the “Miller units, Mean” value (rpoH-lacZ expression; 25 µM hormone, plate columns 7-12 (second strain), mean of plate rows 5-8 (rpoH)) of the same molecule?
Its value is 170 Miller units.

What about the “Miller units, single well” value (rpoH-lacZ expression; 25 µM hormone, plate columns 7-12 (second strain, not WT)) of the same molecule?
Its value is 168 Miller units and 179 Miller units and 147 Miller units.

And the “Miller units, Mean” value (rpoH-lacZ expression; 25 µM hormone, plate columns 7-12 (second strain, not WT), mean of 4 wells)?
Its value is 170 Miller units.

And the “Plate-6 (Testosterone) Miller units, Mean” value (rpoH-lacZ expression; 25 µM, plate column 5, mean of plate rows 5-8)?
Its value is 63 Miller units.

And the “Plate-6 (Testosterone) Miller units” value (rpoH-lacZ expression; 25 µM, plate column 5, plate rows 5-8, single wells)?
The value was 68 Miller units and 55 Miller units and 57 Miller units and 70 Miller units.

What about the “Plate-6 (Testosterone) Miller units, Mean” value (rpoH-lacZ expression; 25 µM, plate column 11, mean of plate rows 5-8) of the same molecule?
Its value is 65 Miller units.

What about the “Plate-6 (Testosterone) Miller units” value (rpoH-lacZ expression; 25 µM, plate column 11, plate rows 5-8, single wells) of the same molecule?
The value was 64 Miller units and 60 Miller units and 68 Miller units and 67 Miller units.

And the “Miller units, single well” value (rpoH-lacZ expression; [4])?
Its value is 140 Miller units and 146 Miller units and 175 Miller units.

What about the “Miller units, Mean” value (rpoH-lacZ expression; 50 µM hormone, plate columns 1-6 (WT), mean of 4 wells) of the same molecule?
The value was 152 Miller units.

And the “Miller units, Mean” value (rpoH-lacZ expression; 50 µM hormone, plate columns 1-6 (WT), mean of plate rows 5-8 (rpoH))?
Its value is 152 Miller units.

What about the Miller units (rpoH-lacZ expression; [4]) of the same molecule?
The Miller units was 140 Miller units and 146 Miller units and 175 Miller units.

And the Miller units (rpoH-lacZ expression; 50 µM hormone, plate columns 7-12 (second strain not given))?
Its Miller units is 166 Miller units and 158 Miller units and 156 Miller units.

And the “Miller units, Mean” value (rpoH-lacZ expression; 50 µM hormone, plate columns 7-12 (second strain), mean of plate rows 5-8 (rpoH))?
Its value is 162 Miller units.

What about the “Miller units, single well” value (rpoH-lacZ expression; 50 µM hormone, plate columns 7-12 (second strain, not WT)) of the same molecule?
The value was 166 Miller units and 158 Miller units and 156 Miller units.

What about the “Miller units, Mean” value (rpoH-lacZ expression; 50 µM hormone, plate columns 7-12 (second strain, not WT), mean of 4 wells) of the same molecule?
Its value is 162 Miller units.

And the “Plate-6 (Testosterone) Miller units, Mean” value (rpoH-lacZ expression; 50 µM, plate column 6, mean of plate rows 5-8)?
The value was 68 Miller units.

What about the “Plate-6 (Testosterone) Miller units” value (rpoH-lacZ expression; 50 µM, plate column 6, plate rows 5-8, single wells) of the same molecule?
Its value is 76 Miller units and 71 Miller units and 62 Miller units and 63 Miller units.

And the “Plate-6 (Testosterone) Miller units, Mean” value (rpoH-lacZ expression; 50 µM, plate column 12, mean of plate rows 5-8)?
The value was 57 Miller units.
